Columns and labels:
E. coli DNA gyrase = molecular target: T1, E. coli DNA gyrase (Escherichia coli, UniProt P0AES4+P0AES6); test: E. coli Gyrase-DNA supercoiling assay; format: biochemical; details: supercoiling of relaxed pHOT-1 plasmid in presence of ATP; 37° C., 60 minutes
T1 construct: purchased TopoGEN
Description: The DNA supercoiling reactions were based on the manufacturer protocol (TopoGEN). The amount of DNA gyrase used in each assay was optimized by testing various dilutions of the stock. The amount sufficient to supercoil 250 nanograms (ng) of the substrate in 1 hour at 37° C. was then used for testing the compounds (1.1 U as defined by manufacturer). Assays (30 μL) contained 250 nanograms of relaxed pHOT1 plasmid DNA in Tris-HCl buffer (35 mM), pH 7.5, containing KCl (24 mM), MgCl2 (4 mM), DTT (2 mM), Spermidine (1.8 mM), ATP (1 mM), 6.5% (w/v) glycerol and bovine serum albumin (0.1 mg/ml). Reactions were incubated at 37° C. for 60 minutes. Reaction mixtures were stopped by the addition of 30 μL of loading buffer (40% sucrose, 100 mM Tris·HCl (pH 7.5), 1 mM EDTA, 0.5 mg×mL^−1 bromophenol blue) and worked up using 30 μL of 24:1 chloroform/isoamyl alcohol mixture; the aqueous layer was then analyzed using electrophoresis.
Electrophoresis, gel staining, DNA visualization and DNA quantification were performed as described for the DNA cleavage assays.

[1] = tested on: supercoiled (+) pHOT-1 plasmid DNA; test: DNA cleavage assay (gel electrophoresis); format: biochemical; details: complex 0.5 mM, 2.5 hours
[2] = tested on: supercoiled (+) pHOT-1 plasmid DNA; test: DNA cleavage assay (gel electrophoresis); format: biochemical
Description: Removal of Ligands Prior to Electrophoresis was performed when more than 100 μM of Cu(II)-ligand or Co(III) ligand (at any concentration) complexes were employed that is, for DNA cleavage assays that were performed in the absence of any adjuvants. An Amberlyst® 15 (Sigma Aldrich) ion-exchange resin was prepared according to the reported literature [Hettich et al. J. Am. Chem. Soc. 1997, 119 (24), 5638-5647] and stored at −20° C. Before use, 0.5 gram of the exchanger was mixed with 250 μL of water. After stopping the DNA-cleavage reaction by addition of EDTA (54 mM, 15 minutes incubation at 37° C.), 10 μL of the exchanger suspension was added, vortexed, and incubated at 37° C. for 15 minutes before centrifugation and electrophoresis.
DNA cleavage activity of the tested Complexes towards supercoiled (+) pHOT-1 plasmid DNA (TopoGEN) was monitored by gel electrophoresis. In a typical experiment, plasmid DNA (200 ng, […]) in HEPES buffer (50 mM, pH 7.4) was mixed with different concentrations of a tested metal complex in the presence or absence of ascorbic acid (0.32 mM). All stock solutions of buffers and of the metal complexes were prepared using HPLC grade water (ChromAR®). Molecular biology reagent grade water (Sigma) was added up to a total reaction volume of 30 μL before incubation for a given time. For the ascorbic acid assays, the reaction was quenched immediately after incubation with EDTA (54 mM). For analysis, 10 μL of loading buffer (40% sucrose, 100 mM Tris-HCl (pH 7.5), 1 mM EDTA, 0.5 mg·mL^−1 bromophenol blue) was added to the incubated solution and loaded onto an agarose (SeaKem LE) gel [1% in TAE×1 buffer (40 mM Tris, 20 mM acetic acid, 1 mM EDTA)]. Electrophoresis was carried out at 60 V for 2 hours. Gels were stained with 1 μg·mL^−1 ethidium bromide for 30 minutes and de-stained in TAE×1 buffer. DNA bands were visualized with medium-range ultraviolet light using Bio-Rad Gel Doc XR+ imaging system. The quantity of different DNA forms (I or II) was estimated using ImageJ software.
Chem. 2015, 2015 (28), 4722-4730; Kashiba-Iwatsuki et al. FEBS Lett. 1996, 389 (2), 149-15].
The copper complex of compound 2 (2-Cu(II)) was used as the positive control in these assays.

[3] = tested on: Escherichia coli R477-100; test: Antibacterial activity, MIC by double-microdilution method; format: cell-based; details: Table 2; Escherichia coli R477-100; without DTT
[4] = tested on: Staphylococcus Epidermidis; test: as above; format: cell-based; details: Table 2
Bacillus Subtilis = test: as above; format: cell-based; details: Table 2; Bacillus Subtilis
Escherichia coli 25922 = test: as above; format: cell-based; details: Table 2; Escherichia coli 25922

T1 sequence (P0AES4 whole entry, one chain of several): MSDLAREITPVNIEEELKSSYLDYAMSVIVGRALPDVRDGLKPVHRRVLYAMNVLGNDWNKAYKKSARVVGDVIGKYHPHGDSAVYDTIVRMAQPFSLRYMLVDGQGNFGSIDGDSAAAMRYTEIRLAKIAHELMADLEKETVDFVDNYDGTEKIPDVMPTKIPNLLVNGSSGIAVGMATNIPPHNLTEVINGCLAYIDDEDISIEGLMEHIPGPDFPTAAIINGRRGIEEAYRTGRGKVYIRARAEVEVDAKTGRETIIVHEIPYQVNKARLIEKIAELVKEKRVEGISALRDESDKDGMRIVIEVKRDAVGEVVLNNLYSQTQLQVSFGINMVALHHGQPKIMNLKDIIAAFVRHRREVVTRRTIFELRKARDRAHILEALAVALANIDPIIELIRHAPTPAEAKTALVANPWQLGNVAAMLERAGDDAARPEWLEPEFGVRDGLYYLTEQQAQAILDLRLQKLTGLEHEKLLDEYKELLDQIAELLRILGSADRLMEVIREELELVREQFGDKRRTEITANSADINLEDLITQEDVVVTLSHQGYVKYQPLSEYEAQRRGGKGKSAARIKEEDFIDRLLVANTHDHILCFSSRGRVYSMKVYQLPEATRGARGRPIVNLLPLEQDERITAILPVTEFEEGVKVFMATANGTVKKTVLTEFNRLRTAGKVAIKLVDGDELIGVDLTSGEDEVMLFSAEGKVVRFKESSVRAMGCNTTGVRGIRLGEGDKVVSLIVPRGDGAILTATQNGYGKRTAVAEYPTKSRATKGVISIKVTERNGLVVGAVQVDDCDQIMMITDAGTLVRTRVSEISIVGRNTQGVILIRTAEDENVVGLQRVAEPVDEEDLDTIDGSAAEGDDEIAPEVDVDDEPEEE

O.O=C(O)c1cn(C2CC2)c2cc(N3CCN(Cc4ccc(CCN5CCNCCNCCNCC5)cc4)CC3)c(F)cc2c1=O.[Cu+2] [5-Cu(II)]
IC50 (E. coli DNA gyrase): 180 ± 30 nM | oxidative cleavage activity in Tris buffer with DTT ([1]; Tris-HCl buffer (35 mM, pH 7.5), DTT (2 mM)): retain significant oxidative cleavage activity | hydrolytic DNA cleavage in presence of Tris-buffer or spermidine [1]: inhibit the hydrolytic DNA cleavage of plasmid DNA | DNase activity (cleavage of supercoiled plasmid, form I to form II) ([2]; absence of adjuvants, HEPES buffer (50 mM, pH 7.4), 5 hours): significant cleavage enhancement even in relation to the activity of 1-Cu(II) and 4-Cu(II) | effect of NaN3 on cleavage ([2]; ascorbic acid (0.32 mM), complex 0.01 mM, scavenger 10 mM, 2 hours): no inhibition whatsoever | effect of hydroxyl radical scavengers DMSO and t-BuOH on cleavage ([2]; no adjuvants, complex 0.5 mM, scavengers 10 mM, 5 hours): no significant inhibitory effect | Gram-negative MIC a [3]: 6 µg/mL | Gram-positive MIC c [4]: 6 µg/mL | Gram-positive MIC d (Bacillus Subtilis): 3 µg/mL | Gram-negative MIC b (Escherichia coli 25922): 6 µg/mL

— patent US20230357189A1, “MODIFIED FLUOROQUINOLONES AND USES THEREOF” (Technion Research & Development Foundation Limited, priority 2021, published 2023)
